The results in this text go back to PubChem BioAssay AID1361 (SRMLSC, 2008).

This assay is described as follows: blockers of mitochondrial fusion, WT vs mutant – cell-based, chemical genetic, wild-type and mutant, confirmation (AID 1361). The note with it: Cell-based mitochondrial fusion phenotype, imaging.
The mark [1] stands for this setting: mutant cells, measured here: mutant cell line IC50.

Structures are written as SMILES. Active and inactive are the calls of the source. The rule behind the calls is not given here.

Consider `Cc1cccc(COCC(CC(C)C)N2CCN(C(=O)c3ccc(C(C)(C)C)cc3)CCC2=O)c1` (stereo unspecified), for which the IC50 is 14.7 µM (WT cells) and above 25 µM under setting [1].

With `COC(=O)c1ccc(NC(=O)Nc2ccc(F)c(Cl)c2)cc1`, the IC50 by setting is: (WT cells) 19.4 µM; under setting [1], above 25 µM.

For `CC(C)CCNC(=O)CCCOc1cc(=O)n(C)c2ccccc12`, the IC50 is > 25 µM (inactive) (WT cells) and above 25 µM under setting [1].

In the case of `Cc1ccc(C(C(=O)NC2CCCC2)N(C(=O)Cc2cccs2)c2ccc(C)c(C)c2)o1` (stereo unspecified), the IC50 is, setting by setting: (WT cells) 22.4 µM; under setting [1], above 25 µM.

Take `CCCCN(C(=O)c1cccc2c(=O)c(C)c(-c3ccccc3)oc12)c1ccccc1`: the IC50 (WT cells) was 14.7 µM and the IC50 under setting [1] was above 25 µM.

With `CSC(=S)N/N=C/c1c[nH]c2ccccc12`, the half-inhibitory concentration (IC50) reads like this: (WT cells) 7.53 µM; under setting [1], 11.2 µM.

On to `Cc1cc(C(=O)CSc2nnc(-c3ccc(Cl)cc3)n2CC2CCCO2)c(C)n1C` (stereo unspecified), for which the IC50 reads like this: (WT cells) > 25 µM (inactive); under setting [1], above 25 µM.

As for `CC/C(=C(/CC)c1ccc(O)cc1)c1ccc(O)cc1`, the IC50 is 23.8 µM (WT cells) and above 25 µM under setting [1].

As to `COc1ccccc1/C=C\C=N\n1c(-c2ccc(Cl)cc2Cl)n[nH]c1=S`, the concentration for half-maximal inhibition (IC50) is, setting by setting: (WT cells) 9.01 µM; under setting [1], above 25 µM.

`CCc1ccccc1NC(=O)/C(=C/c1ccccc1)c1ccccc1`: the IC50 is 17.4 µM (WT cells) and above 25 µM under setting [1].

Consider `Cc1c(N2C(=O)c3cccc4cccc(c34)C2=O)c(=O)n(-c2ccccc2)n1C`, for which the IC50 is > 25 µM (inactive) (WT cells) and above 25 µM under setting [1].

As for `O=C(c1c(F)c(F)c(F)c(F)c1F)N(Cc1ccccc1)Cc1ccccc1`, the half-inhibitory concentration (IC50) was 15 µM (WT cells) and 22.4 µM under setting [1].

On to `CCCC[C@@H]1C[C@H]1[C@@H](NC(=O)c1cccs1)c1ccc(Cl)cc1`, for which the IC50 reads like this: (WT cells) 9.76 µM; under setting [1], above 25 µM.

As to `CCCCn1c(N2CCC(Cc3ccccc3)CC2)nc2c1c(=O)[nH]c(=O)n2C`, the half-maximal inhibitory concentration (IC50) (WT cells) was 13.7 µM and the IC50 under setting [1] was above 25 µM.

Take `CCOc1ccc(-n2c(SCC(=O)Nc3cc(C)on3)nnc2-c2c[nH]c3ccccc23)cc1`: the IC50 runs as follows: (WT cells) > 25 µM (inactive); under setting [1], above 25 µM.

Take `CCOC(=O)c1sc(/N=C/c2c(C)[nH]n(-c3ccccc3)c2=O)c(C#N)c1C`: the IC50 (WT cells) is > 25 µM (inactive) and the IC50 under setting [1] is above 25 µM.

As to `O=C(CCSc1ccc(Cl)cc1)NC12CC3CC(CC(C3)C1)C2`, the half-maximal inhibitory concentration (IC50) reads like this: (WT cells) 13.1 µM; under setting [1], above 25 µM.

For the compound `COc1cc2c(cc1NC(=O)CSc1nc3ccccc3[nH]1)oc1ccccc12`, the concentration for half-maximal inhibition (IC50) runs as follows: (WT cells) 11.2 µM; under setting [1], above 25 µM.

As to `COc1ccc(NP(=O)(Oc2ccc(Cl)cc2)Oc2ccc(Cl)cc2)cc1OC`, the 50% inhibitory concentration (IC50) is, setting by setting: (WT cells) 12.6 µM; under setting [1], above 25 µM.

As for `CC(C)OC(=O)C(C(=O)C(F)(F)F)c1cc(NS(=O)(=O)c2ccc3ccccc3c2)c2ccccc2c1O` (stereo unspecified), the IC50 (WT cells) is 15.1 µM and the half-inhibitory concentration (IC50) under setting [1] was above 25 µM.

Consider `CCN1CCN(c2ccc(NC(=O)c3ccc4c(c3)OCO4)cc2)CC1`, for which the IC50 reads like this: (WT cells) > 25 µM (inactive); under setting [1], above 25 µM.

Consider `S=C1NC(C23CC4CC(CC(C4)C2)C3)=CC(c2ccc3c(c2)OCO3)N1` (stereo unspecified), for which the IC50 (WT cells) is 4.6 µM and the half-inhibitory concentration (IC50) under setting [1] is above 25 µM.

`CC(C)(C)n1nnnc1C(c1cccs1)N(Cc1cccnc1)Cc1ccccc1Cl` (stereo unspecified): the 50% inhibitory concentration (IC50) is 23.2 µM (WT cells) and above 25 µM under setting [1].

For `CC(=O)N(C)c1nnc(-c2cnccn2)s1`, the IC50 is > 25 µM (inactive) (WT cells) and above 25 µM under setting [1].

For the compound `O=C(COC(=O)CC(c1ccccc1)c1ccccc1)NCc1ccc(Cl)cc1`, the IC50 by setting is: (WT cells) 14.7 µM; under setting [1], above 25 µM.

As to `CN1C=CC=C/C1=C1\SC(=S)N(c2ccccc2)C1=O`, the IC50 (WT cells) is > 25 µM (inactive) and the half-maximal inhibitory concentration (IC50) under setting [1] was above 25 µM.

With `Cc1ccc(OCc2n[nH]c(=S)n2-c2ccccc2)cc1C`, the IC50 is 24.4 µM (WT cells) and above 25 µM under setting [1].

As to `CC(c1ccccc1)N(CCC(c1ccccc1)C1CCOC(C)(C)C1)C(=O)c1ccco1` (stereo unspecified), the IC50 is, setting by setting: (WT cells) 19.2 µM; under setting [1], above 25 µM.

In the case of `N#CCc1ccc(NS(=O)(=O)c2ccc(C3CCCCC3)cc2)cc1`, the IC50 was 22.8 µM (WT cells) and above 25 µM under setting [1].

For `CCOC(=O)C1=C(C)NC(SC(C)=O)=NC1c1ccc(OC(C)=O)c(OC)c1` (stereo unspecified), the IC50 is > 25 µM (inactive) (WT cells) and above 25 µM under setting [1].

Consider `Cc1cc(C)cc(NC(=S)Nc2cccc3cnccc23)c1`, for which the IC50 was > 25 µM (inactive) (WT cells) and above 25 µM under setting [1].

Regarding `O=C(Nc1ccc(F)cc1)N1CC2CC(C1)c1cccc(=O)n1C2` (stereo unspecified), the IC50 was > 25 µM (inactive) (WT cells) and above 25 µM under setting [1].

`Cc1ccc2c(c1)c1c(n2CC(O)Cn2nc(C)c(Br)c2C)CCCC1` (stereo unspecified): the half-maximal inhibitory concentration (IC50) reads like this: (WT cells) 12.3 µM; under setting [1], 22.8 µM.

With `Cc1ccc(Nc2nc(N)c([N+](=O)[O-])c(NCc3ccco3)n2)cc1C`, the IC50 (WT cells) is 15.5 µM and the IC50 under setting [1] is above 25 µM.

For `COc1ccc(/C=C/c2nc3cc(-c4ccccc4)ccc3o2)cc1O`, the half-maximal inhibitory concentration (IC50) reads like this: (WT cells) 11.6 µM; under setting [1], above 25 µM.

With `CCC(C)(C)c1ccc2c(c1)C(=O)c1ccccc1C2=O`, the 50% inhibitory concentration (IC50) (WT cells) was 18.6 µM and the 50% inhibitory concentration (IC50) under setting [1] is above 25 µM.

Take `CC1CCCN(c2nc3c(c(=O)[nH]c(=O)n3C)n2Cc2ccccc2Cl)C1` (stereo unspecified): the IC50 is, setting by setting: (WT cells) 17.4 µM; under setting [1], above 25 µM.

`c1ccc2c(-c3c[nH]c4ccccc34)c3ccccc3nc2c1`: the concentration for half-maximal inhibition (IC50) is 15.3 µM (WT cells) and above 25 µM under setting [1].

On to `O=C(Nc1ccc2c(c1)OCO2)c1ccccc1SCC(=O)N1CCCC1`, for which the IC50 (WT cells) was > 25 µM (inactive) and the IC50 under setting [1] is above 25 µM.

For `Nn1c(SCC(=O)Nc2ccc3c(c2)OCO3)nnc1-c1ccncc1`, the IC50 runs as follows: (WT cells) > 25 µM (inactive); under setting [1], above 25 µM.

For the compound `O=C(COC(=O)c1ccccn1)Nc1cccc(Cl)c1Cl`, the IC50 is > 25 µM (inactive) (WT cells) and above 25 µM under setting [1].

`CC(C)c1ccc(OCc2nc(-c3ccccn3)no2)c(Br)c1`: the half-inhibitory concentration (IC50) (WT cells) is 15.6 µM and the IC50 under setting [1] amounted to 20.8 µM.

For the compound `C=CCn1c(C)c(C(C)=O)c(N2CCN(C(c3ccccc3)c3ccccc3)CC2)nc1=S`, the 50% inhibitory concentration (IC50) reads like this: (WT cells) 13.3 µM; under setting [1], above 25 µM.

On to `C=CCN1C(=O)C(CC(=O)Nc2ccc(OCCC)cc2)N(CCCN2CCN(Cc3ccccc3)CC2)C1=S` (stereo unspecified), for which the IC50 reads like this: (WT cells) > 25 µM (inactive); under setting [1], above 25 µM.

For `CCn1c2ccccc2c2cc(/C=N/NC(=O)c3cccc(C)c3)ccc21`, the IC50 is, setting by setting: (WT cells) > 25 µM (inactive); under setting [1], above 25 µM.

Regarding `COc1c(F)c(F)c(C(=O)O)c(Nc2ccccc2C)c1F`, the IC50 is > 25 µM (inactive) (WT cells) and above 25 µM under setting [1].

With `CCCCc1nc2ccccc2c(=O)n1-c1ccc(Cl)cc1[N+](=O)[O-]`, the IC50 was > 25 µM (inactive) (WT cells) and above 25 µM under setting [1].

Regarding `O=C(N/N=C/c1c[nH]c2ccccc12)C1CC1(c1ccccc1)c1ccccc1` (stereo unspecified), the IC50 (WT cells) is > 25 µM (inactive) and the 50% inhibitory concentration (IC50) under setting [1] was above 25 µM.

With `COc1ccccc1CNc1nc2nc(C)c(C)c(=O)n2[nH]1`, the IC50 by setting is: (WT cells) > 25 µM (inactive); under setting [1], above 25 µM.

For `CCCCCCn1c(N)c(C(=O)NCCN2CCOCC2)c2nc3ccccc3nc21`, the IC50 is, setting by setting: (WT cells) > 25 µM (inactive); under setting [1], above 25 µM.

Regarding `Clc1cncc(Cl)c1NNc1c2ccccc2nc2ccccc12`, the IC50 is > 25 µM (inactive) (WT cells) and above 25 µM under setting [1].

Regarding `CCOC(=O)c1sc(NC(=O)Nc2cccc(Cl)c2)cc1C`, the 50% inhibitory concentration (IC50) reads like this: (WT cells) 11.8 µM; under setting [1], above 25 µM.

Take `Cc1ccc(NC(=S)N(CCCN2CCCC2)Cc2cccn2Cc2ccc(Cl)cc2)cc1C`: the IC50 is, setting by setting: (WT cells) 13.1 µM; under setting [1], above 25 µM.

With `Cc1ccccc1NC1=C(Cl)C(=O)N(C2CCCCC2)C1=O`, the IC50 was 19.1 µM (WT cells) and above 25 µM under setting [1].

Turning to `FC(F)(F)c1ccc(Oc2ccc3ccccc3c2Br)nc1`, the IC50 is > 25 µM (inactive) (WT cells) and above 12.5 µM under setting [1].

In the case of `Cc1cccc(N/N=C(\C=N\N)C(=O)c2ccc(Br)cc2)c1`, the IC50 runs as follows: (WT cells) > 25 µM (inactive); under setting [1], above 25 µM.

`CCC[C@@H]1C[C@@]1(CCC)[C@@H](NP(=O)(c1ccccc1)c1ccccc1)c1ccc(C(=O)OC)cc1`: the IC50 is 12.6 µM (WT cells) and above 25 µM under setting [1].

With `OC(CNCc1ccc(Cl)cc1)(c1ccccc1)c1ccc(F)cc1` (stereo unspecified), the IC50 by setting is: (WT cells) > 25 µM (inactive); under setting [1], above 25 µM.

Turning to `COC(=O)c1ccc(C2C3=C(Nc4nnnn42)c2ccccc2OC3)cc1` (stereo unspecified), the IC50 by setting is: (WT cells) > 25 µM (inactive); under setting [1], above 25 µM.

As to `CS(=O)(=O)N1CCc2cc(C(=O)N3CCOCC3)ccc21`, the IC50 by setting is: (WT cells) > 25 µM (inactive); under setting [1], above 25 µM.

Turning to `COc1ccc(Cc2nc3ccc(S(=O)(=O)N4CCOCC4)cc3[nH]2)cc1`, the IC50 by setting is: (WT cells) > 25 µM (inactive); under setting [1], above 25 µM.

On to `CCn1cc(C(=O)NCCc2ccccc2)c(=O)c2cc(F)c(N3CCN(C)CC3)cc21`, for which the IC50 runs as follows: (WT cells) > 25 µM (inactive); under setting [1], above 25 µM.

Turning to `CNc1oc(C)nc1S(=O)(=O)c1ccc(C)cc1`, the IC50 reads like this: (WT cells) > 25 µM (inactive); under setting [1], above 25 µM.

As to `Cc1nc2c(ccc3nc(NC(=O)Cc4ccccc4)sc32)s1`, the half-maximal inhibitory concentration (IC50) is 12.4 µM (WT cells) and above 25 µM under setting [1].

On to `COc1ccccc1-n1c(SCC(=O)c2ccc(O)cc2O)nc2cc([N+](=O)[O-])ccc21`, for which the half-inhibitory concentration (IC50) (WT cells) is 6.02 µM and the IC50 under setting [1] was above 25 µM.

For the compound `CCOC(=O)c1cc(-c2ccc3c(c2)OCO3)nc2onc(C)c12`, the IC50 reads like this: (WT cells) > 25 µM (inactive); under setting [1], above 25 µM.

As to `COc1ccc(-c2nc3n(c(=O)c2C#N)CCCS3)cc1`, the IC50 by setting is: (WT cells) > 25 µM (inactive); under setting [1], above 25 µM.

Turning to `O=C1CC(SCc2nc3ccccc3[nH]2)C(=O)N1c1cccc(F)c1` (stereo unspecified), the IC50 reads like this: (WT cells) > 25 µM (inactive); under setting [1], above 25 µM.
